Experimental data published in patent publication US9975895B2, “Substituted pyrimidinium compounds and derivatives for combating animal pests” (BASF SE, priority 2013, dated 2018).

Assays:
Type in all cases: in vivo
[1] = system: Vetch aphid (Megoura viciae); experiment: Vetch aphid control through contact or systemic means, broad bean leaf disks; details: foliar, 120 h, adult aphids on treated leaf disks, 5 days, read-out: mortality in comparison with untreated controls
Procedure: For evaluating control of vetch aphid (Megoura viciae) through contact or systemic means the test unit consisted of 24-well-microtiter plates containing broad bean leaf disks.
The compounds were formulated using a solution containing 75% v/v water and 25% v/v DMSO. Different concentrations of formulated compounds were sprayed onto the leaf disks at 2.5 μl, using a custom built micro atomizer, at two replications.
After application, the leaf disks were air-dried and 5-8 adult aphids placed on the leaf disks inside the microtiter plate wells. The aphids were then allowed to suck on the treated leaf disks and incubated at about 23±1° C. and about 50±5% relative humidity for 5 days. Aphid mortality and fecundity was then visually assessed.

[2] = system: Tobacco budworm (Heliothis virescens); experiment: Tobacco budworm control, 96-well microtiter plates with insect diet and eggs; details: 120 h, egg and larval mortality after 5 days, read-out: mortality in comparison with untreated controls
Procedure: For evaluating control of tobacco budworm (Heliothis virescens) the test unit consisted of 96-well-microtiter plates containing an insect diet and 15-25 H. virescens eggs.
The compounds were formulated using a solution containing 75% v/v water and 25% v/v DMSO. Different concentrations of formulated compounds were sprayed onto the insect diet at 10 μl, using a custom built micro atomizer, at two replications.
After application, microtiter plates were incubated at about 28±1° C. and about 80±5% relative humidity for 5 days. Egg and larval mortality was then visually assessed.

[3] = system: Green peach aphid (Myzus persicae); experiment: Green peach aphid control through systemic means, artificial diet under membrane; details: 72 h, adult aphids on treated diet, 3 days, read-out: mortality in comparison with untreated controls
Text: For evaluating control of green peach aphid (Myzus persicae) through systemic means the test unit consisted of 96-well-microtiter plates containing liquid artificial diet under an artificial membrane.
The compounds were formulated using a solution containing 75% v/v water and 25% v/v DMSO. Different concentrations of formulated compounds were pipetted into the aphid diet, using a custom built pipetter, at two replications.
After application, 5-8 adult aphids were placed on the artificial membrane inside the microtiter plate wells. The aphids were then allowed to suck on the treated aphid diet and incubated at about 23±1° C. and about 50±5% relative humidity for 3 days. Aphid mortality and fecundity was then visually assessed.

[4] = system: Rice brown plant hopper (Nilaparvata lugens); experiment: Rice brown plant hopper, sprayed potted rice seedlings; details: adults on sprayed rice seedlings, after 72 hours, read-out: mortality in comparison with untreated controls
Procedure: (§1) Rice seedlings were cleaned and washed 24 hours before spraying. The active compounds were formulated in 50:50 acetone:water (vol:vol) and 0.1% vol/vol surfactant (EL 620) was added. Potted rice seedlings were sprayed with 5 ml test solution, air dried, placed in cages and inoculated with 10 adults. Treated rice plants were kept at about 28-29° C. and relative humidity of about 50-60%. Percent mortality was recorded after 72 hours.

[5] = system: Rice green leafhopper (Nephotettix virescens); experiment: Rice green leafhopper, sprayed potted rice seedlings; details: adults on sprayed rice seedlings, after 72 hours, read-out: mortality in comparison with untreated controls
Procedure: as §1, with “(vol:vol),” for “(vol:vol)”

[6] = system: Orchid thrips (Dichromothrips corbetti); experiment: Orchid thrips floral-immersion bioassay; details: adult thrips, 72 hours after treatment, read-out: mortality in comparison with untreated controls
Procedure: Dichromothrips corbetti adults used for bioassay were obtained from a colony maintained continuously under laboratory conditions. For testing purposes, the test compound is diluted in a 1:1 mixture of acetone:water (vol:vol), plus 0.01% vol/vol Alkamuls® EL 620 surfactant. Thrips potency of each compound was evaluated by using a floral-immersion technique. Plastic petri dishes were used as test arenas. All petals of individual, intact orchid flowers were dipped into treatment solution and allowed to dry. Treated flowers were placed into individual petri dishes along with about 20 adult thrips. The petri dishes were then covered with lids. All test arenas were held under continuous light and a temperature of about 28° C. for duration of the assay. After 3 days, the numbers of live thrips were counted on each flower, and along inner walls of each petri dish. The percent mortality was recorded 72 hours after treatment.

[7] = system: Boll weevil (Anthonomus grandis); experiment: Boll weevil control, 96-well microtiter plates with insect diet and eggs; details: 120 h, egg and larval mortality after 5 days, read-out: mortality in comparison with untreated controls
Procedure: For evaluating control of boll weevil (Anthonomus grandis) the test unit consisted of 96-well-microtiter plates containing an insect diet and 5-10 A. grandis eggs.
The compounds were formulated using a solution containing 75% v/v water and 25% v/v DMSO. Different concentrations of formulated compounds were sprayed onto the insect diet at 5 μl, using a custom built micro atomizer, at two replications.
After application, microtiter plates were incubated at about 25±1° C. and about 75±5% relative humidity for 5 days. Egg and larval mortality was then visually assessed.

COc1ccc(-c2c([O-])n3c4c(ccc[n+]4c2=O)CCC3c2cnc(Cl)s2)cc1 (stereo not drawn) [C-11]
> 75%: mortality at 2500 ppm [1] | mortality at 2500 ppm [2] | mortality at 2500 ppm [3]

O=c1c(-c2ccccc2)c([O-])[n+]2c3n1CCCC3CCC2c1cnc(Cl)s1 (stereo not drawn) [C-6]
> 75%: mortality at 500 ppm [4] | mortality at 2500 ppm [1] | mortality at 500 ppm [5] | mortality at 2500 ppm [3] | mortality at 500 ppm [6]

O=c1c(-c2ccccc2)c([O-])[n+]2c3n1CCN3CCC2c1cnc(Cl)s1 (stereo not drawn) [C-4]
> 75%: mortality at 500 ppm [5] | mortality at 2500 ppm [3] | mortality at 500 ppm [6]

O=c1c(-c2cc(Cl)cc(Cl)c2)c([O-])n2c3c(ccc[n+]13)CCC2c1cnc(Cl)s1 (stereo not drawn) [C-10]
> 75%: mortality at 2500 ppm [1] | mortality at 2500 ppm [2]

O=c1c(-c2ccccc2)c([O-])[n+]2c3n1CCCC3CC2c1cnc(Cl)s1 (stereo not drawn) [C-3]
> 75%: mortality at 500 ppm [4] | mortality at 2500 ppm [1] | mortality at 500 ppm [5] | mortality at 2500 ppm [3] | mortality at 500 ppm [6]

O=c1c(-c2ccccc2)c([O-])[n+]2c3n1CCCN3CCC2c1cnc(Cl)s1 (stereo not drawn) [C-7]
> 75%: mortality at 2500 ppm [7] | mortality at 500 ppm [4] | mortality at 2500 ppm [1] | mortality at 500 ppm [5] | mortality at 2500 ppm [3] | mortality at 500 ppm [6]

O=c1c(-c2cccc(C(F)(F)F)c2)c([O-])n2c3c(ccc[n+]13)CCC2c1cnc(Cl)s1 (stereo not drawn) [C-9]
> 75%: mortality at 2500 ppm [1] | mortality at 2500 ppm [2] | mortality at 2500 ppm [3]

O=c1c(-c2ccccc2)c([O-])[n+]2c3c(cccn13)CCC2c1cnc(Cl)s1 (stereo not drawn) [C-8]
> 75%: mortality at 2500 ppm [7] | mortality at 500 ppm [4] | mortality at 2500 ppm [1] | mortality at 500 ppm [5] | mortality at 2500 ppm [2] | mortality at 2500 ppm [3] | mortality at 500 ppm [6]

O=c1c(-c2ccccc2)c([O-])[n+]2c3n1CCC3CCC2c1cnc(Cl)s1 (stereo not drawn) [C-2]
> 75%: mortality at 500 ppm [4] | mortality at 2500 ppm [1] | mortality at 500 ppm [5] | mortality at 2500 ppm [3] | mortality at 500 ppm [6]
